Molecules are shown by their SMILES.

Experiment [1] is described as follows: Inhibition of HIV Rev activity. Details: species or system Human immunodeficiency virus.
The next experiment concerns HeLa. In words: Growth inhibition of human HeLa cells measured after 48 hrs by MTT assay. The format is functional, cell-based. (Tetrazolium dyes change colour on reduction, which living cells bring about.)
Another experiment has as its system SK-N-BE(2). The experiment is described as follows: Antiproliferative activity against human SK-N-BE(2) cells by CCK-8 assay. The format is functional, cell-based. As to conditions: SKNBE2.
The next experiment deals with SH-SY5Y. The experiment is described as follows: Antiproliferative activity against human SH-SY5Y cells by CCK-8 assay. The format is functional, cell-based.
The test system of another experiment is NSCLC. In words: Antitumor activity against human NSCLC cells. The format is functional, cell-based.
The subject of experiment [2] is HCT-15. The experiment is described as follows: Anticancer activity against human HCT-15 cells assessed as decrease in invading cells at 0.5 uM measured after 36 hrs. The format is functional.
The test system of experiment [3] is HCT-15. The experiment is described as follows: Anticancer activity against human HCT-15 cells assessed as decrease in invading cells at 1 uM measured after 36 hrs. The format is functional.
Experiment [4] concerns HCT-15. The experiment is described as follows: Inhibition of colony formation in human HCT-15 cells at 2 uM incubated for 14 days by crystal violet staining based cell clonogenic assay. The format is functional. The note with it: HCT-15, 336 h, time 14 day.
Experiment [5] deals with HCT-15. In words: Inhibition of colony formation in human HCT-15 cells at 4 uM incubated for 14 days by crystal violet staining based cell clonogenic assay. The format is functional. As to conditions: HCT-15, 336 h, time 14 day.
Another experiment relates to HT-29. The experiment is described as follows: Antiproliferative activity against human HT-29 cells assessed as cell viability measured after 3 hrs by CCK-8 assay. The format is functional, cell-based. As to conditions: HT-29, 3 h.
In experiment [6] the test system is HCT-15. The experiment is described as follows: Antiproliferative activity against human HCT-15 cells assessed as cell viability measured after 3 hrs by CCK-8 assay. As to conditions: HCT-15, 3 h. The format is functional, cell-based.
Experiment [7] deals with HCT-15. The experiment is described as follows: Inhibition of colony formation in human HCT-15 cells at 1 uM incubated for 14 days by crystal violet staining based cell clonogenic assay. As to conditions: HCT-15, 336 h, time 14 day. The format is functional.
Experiment [8] relates to SMMC-7721. The experiment is described as follows: Antitumor activity against human SMMC-7721 cells measured after 6 hrs. As to conditions: SMMC-7721, 6 h. The format is functional, cell-based.
The nature of experiment [9]: Cytotoxicity against human L9981 cells assessed as inhibition of tumor growth measured after 72 hrs by MTT assay. The format is functional, cell-based. The note with it: L9981, 72 h.
Experiment [10] in a line: Cytotoxicity against human NL9980 cells assessed as inhibition of tumor growth measured after 72 hrs by MTT assay. The format is functional, cell-based. The note with it: NL9980, 72 h.
In experiment [11] the test system is SMMC-7721. The experiment is described as follows: Antitumor activity against human SMMC-7721 cells measured after 12 hrs. The format is functional, cell-based. The note with it: SMMC-7721, 12 h.
In experiment [12] the test system is SMMC-7721. In words: Antitumor activity against human SMMC-7721 cells measured after 24 hrs. The format is functional, cell-based. As to conditions: SMMC-7721, 24 h.
For experiment [13], the system named is HCT-15. In words: Antitumor activity against wild type human HCT-15 cells. The format is functional, cell-based.
The test system of experiment [14] is HCT-15. In words: Antitumor activity against CRM1 knockout human HCT-15 cells. The format is functional, cell-based.
The nature of experiment [15]: Inhibition of nuclear export in human HeLa cells. The format is functional, cell-based.
Experiment [16] has as its system SGC-7901. In words: Growth inhibition of human SGC-7901 cells assessed as inhibition rate at 100 uM relative to control. The format is functional.
Experiment [17] deals with SGC-7901. In words: Growth inhibition of human SGC-7901 cells assessed as inhibition rate at 150 uM relative to control. The format is functional.
For experiment [18], the system named is SGC-7901. In words: Growth inhibition of human SGC-7901 cells assessed as inhibition rate at 5 uM relative to control. The format is functional.
The test system of experiment [19] is SGC-7901. The experiment is described as follows: Growth inhibition of human SGC-7901 cells assessed as inhibition rate at 50 uM relative to control. The format is functional.

For orientation: IC50 means the concentration needed to halve the response being measured. With `CC1=C(COCCC(C)(C)C)C(=O)N(Nc2ccc(C(F)(F)F)c(Cl)n2)C1=O`, 5.5 µM corresponded to half-maximal inhibition in experiment [1] (IC50).

In the experiment on HeLa, `COc1cc(/C=C/C(=O)CC(=O)/C=C/c2ccc(O)c(OC)c2)ccc1O` [CURCUMIN] yielded an IC50 of 32.4 µM.

With `O=C(/C=C\n1cnc(-c2cc(C(F)(F)F)cc(C(F)(F)F)c2)n1)NNc1ccccn1` [VERDINEXOR], the IC50 came to 1.4 µM in the experiment with SK-N-BE(2) and 0.3 µM with SH-SY5Y.

As to `O=C(/C=C\n1cnc(-c2cc(C(F)(F)F)cc(C(F)(F)F)c2)n1)NNc1cnccn1` [SELINEXOR], the IC50 with NSCLC was determined as 0.025 µM.

The molecule `COc1cc(/C=C/C(=O)N2CCC=CC2=O)cc(OC)c1OC` [PIPLARTINE] came in with an IC50 with HeLa of 16.3 µM.

As usually defined, the inhibition is the drop in the measured response relative to a control, in per cent. As for `CC1=C(C)C(=O)N(Nc2ccc(Cl)c(Cl)n2)C1=O`, the inhibition at 0.5 µM with HCT-15 [2] turned out to be 44%. Moreover, the values for the inhibition at 1 µM with HCT-15 [3] and with HCT-15 [7] were 67% and 58.5%, respectively. Testing at 2 µM in the experiment with HCT-15 [4] gave an inhibition of 83.2%. In the experiment with HCT-15 [5], this molecule showed an inhibition at 4 µM of 91.4%. In addition, the IC50 came to 0.97 µM in the experiment with HT-29 and 1.2 µM in the experiment with HCT-15 [6].

For the molecule `CC1=CC(=O)c2c(O)cccc2C1=O` [PLUMBAGIN], the IC50 with SMMC-7721 [8] is 36.1 µM; in experiment [9], 9 µM; in [10] it was 7.5 µM; in the experiment on SMMC-7721 [11], 5.41 µM; in the experiment with SMMC-7721 [12] it was 2.43 µM.

With `[O-][S+](/C=C/CCN=C=S)c1cc(C(F)(F)F)cc(C(F)(F)F)c1` (stereo not given), the values for the IC50 in the experiment with HCT-15 [13] and in the experiment with HCT-15 [14] were 0.151 µM and 14 µM, respectively.

The EC50 is the concentration giving half of the maximal effect. Read a high EC50 as lower potency in that assay. In experiment [15], `CC(C)CCNC/C=C/[S+]([O-])c1cc(C(F)(F)F)cc(C(F)(F)F)c1` (stereo not given) returned an EC50 of 3.2 µM.

As to `C=C1C(=O)[C@]23[C@H](O)[C@H]1CC[C@H]2[C@@]12CO[C@]3(O)[C@@H](O)[C@@H]1C(C)(C)CC[C@@H]2O` [ORIDONIN], in the experiment on SGC-7901 [16], the inhibition at 100 µM was 75%. In addition, the inhibition at 150 µM with SGC-7901 [17] was determined as 90%. Moreover, the inhibition at 5 µM in the experiment on SGC-7901 [18] stood at 20%. Besides, in the experiment with SGC-7901 [19], the inhibition at 50 µM was 35%.
